7 molecules from patent US11970511B2, “Tetrahydropyran-based thiodisaccharide mimics as Galectin-3 inhibitors” (BRISTOL-MYERS SQUIBB COMPANY, priority 2018, dated 2024) can be followed below.

For the test, the target named is His-tagged recombinant human Gal-3 (hGal-3) (Homo sapiens, UniProt P17931). The test is described as follows: Gal-3 HTRF assay: His-tagged hGal-3 binding to B-ASF, Anti-His terbium antibody / Streptavidin d2 detection.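 Further: compound preincubated 30 min with hGal-3, then 1 h with B-ASF, DMSO wells with B-ASF serving as positive control and those lacking B-ASF as negative control.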 The following applies: 15 nM hGal-3, 15 nM B-ASF, three replicates, room temperature.
Chain of His-tagged recombinant human Gal-3 (hGal-3) (P17931 whole entry): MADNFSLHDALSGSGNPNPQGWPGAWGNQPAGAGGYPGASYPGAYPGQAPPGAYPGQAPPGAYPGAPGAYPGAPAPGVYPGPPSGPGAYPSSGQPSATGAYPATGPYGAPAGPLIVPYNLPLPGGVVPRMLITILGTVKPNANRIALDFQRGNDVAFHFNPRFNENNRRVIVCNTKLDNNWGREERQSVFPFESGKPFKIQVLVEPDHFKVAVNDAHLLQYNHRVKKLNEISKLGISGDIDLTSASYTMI
Turning to `CO[C@@H]1[C@@H](n2cc(-c3ccc(-c4ccccc4)cc3)nn2)[C@@H](O)[C@@H](CO)O[C@H]1S[C@@H]1COC[C@H](n2cc(-c3ccccc3)nn2)[C@H]1O` [Example A3, (2R,3R,4S,5R,6S)-4-(4-([1,1′-biphenyl]-4-yl)-1H-1,2,3-triazol-1-yl)-6-(((3R,4R,5S)-4-hydroxy-5-(4-phenyl-1H-1,2,3-triazol-1-yl)tetrahydro-2H-pyran-3-yl)thio)-2-(hydroxymethyl)-5-methoxytetrahydro-2H-pyran-3-ol], the 50% inhibitory concentration (IC50) was 11000 nM.

In the case of `CO[C@@H]1[C@@H](n2cc(-c3cccc(F)c3)nn2)[C@@H](O)[C@@H](CO)O[C@H]1S[C@@H]1COC[C@H](n2cc(-c3ccccc3)nn2)[C@H]1O` [Example A4, (2R,3R,4S,5R,6S)-4-(4-(3-fluorophenyl)-1H-1,2,3-triazol-1-yl)-6-(((3R,4R,5S)-4-hydroxy-5-(4-phenyl-1H-1,2,3-triazol-1-yl)tetrahydro-2H-pyran-3-yl)thio)-2-(hydroxymethyl)-5-methoxytetrahydro-2H-pyran-3-ol], the IC50 amounted to 26 nM.

As for `CO[C@@H]1[C@@H](n2cc(-c3nccs3)nn2)[C@@H](O)[C@@H](CO)O[C@H]1S[C@@H]1COC[C@H](n2cc(-c3ccccc3)nn2)[C@H]1O` [Example A5, (2R,3R,4S,5R,6S)-6-(((3R,4R,5S)-4-hydroxy-5-(4-phenyl-1H-1,2,3-triazol-1-yl)tetrahydro-2H-pyran-3-yl)thio)-2-(hydroxymethyl)-5-methoxy-4-(4-(thiazol-2-yl)-1H-1,2,3-triazol-1-yl)tetrahydro-2H-pyran-3-ol], the IC50 is 490 nM.

Turning to `CO[C@@H]1[C@@H](n2cc(-c3cncnc3)nn2)[C@@H](O)[C@@H](CO)O[C@H]1S[C@@H]1COC[C@H](n2cc(-c3ccccc3)nn2)[C@H]1O` [Example A6, (2R,3R,4S,5R,6S)-6-(((3R,4R,5S)-4-hydroxy-5-(4-phenyl-1H-1,2,3-triazol-1-yl)tetrahydro-2H-pyran-3-yl)thio)-2-(hydroxymethyl)-5-methoxy-4-(4-(pyrimidin-5-yl)-1H-1,2,3-triazol-1-yl)tetrahydro-2H-pyran-3-ol], the half-maximal inhibitory concentration (IC50) was determined as 360 nM.

On to `CO[C@@H]1[C@@H](n2cc(-c3cncs3)nn2)[C@@H](O)[C@@H](CO)O[C@H]1S[C@@H]1COC[C@H](n2cc(-c3ccccc3)nn2)[C@H]1O` [Example A7, (2R,3R,4S,5R,6S)-6-(((3R,4R,5S)-4-hydroxy-5-(4-phenyl-1H-1,2,3-triazol-1-yl)tetrahydro-2H-pyran-3-yl)thio)-2-(hydroxymethyl)-5-methoxy-4-(4-(thiazol-5-yl)-1H-1,2,3-triazol-1-yl)tetrahydro-2H-pyran-3-ol], for which the IC50 came to 840 nM.

In the case of `CO[C@@H]1[C@@H](n2cc(-c3ccc4nccnc4c3)nn2)[C@@H](O)[C@@H](CO)O[C@H]1S[C@@H]1COC[C@H](n2cc(-c3ccccc3)nn2)[C@H]1O` [Example A8, (2R,3R,4S,5R,6S)-6-(((3R,4R,5S)-4-hydroxy-5-(4-phenyl-1H-1,2,3-triazol-1-yl)tetrahydro-2H-pyran-3-yl)thio)-2-(hydroxymethyl)-5-methoxy-4-(4-(quinoxalin-6-yl)-1H-1,2,3-triazol-1-yl)tetrahydro-2H-pyran-3-ol], the IC50 came out at 170 nM.

With `CO[C@@H]1[C@@H](n2cc(-c3ccnnc3)nn2)[C@@H](O)[C@@H](CO)O[C@H]1S[C@@H]1COC[C@H](n2cc(-c3ccccc3)nn2)[C@H]1O` [Example A9, (2R,3R,4S,5R,6S)-6-(((3R,4R,5S)-4-hydroxy-5-(4-phenyl-1H-1,2,3-triazol-1-yl)tetrahydro-2H-pyran-3-yl)thio)-2-(hydroxymethyl)-5-methoxy-4-(4-(pyridazin-4-yl)-1H-1,2,3-triazol-1-yl)tetrahydro-2H-pyran-3-ol], the IC50 was found to be 1240 nM.
